Test results published in article PMC13434769 (2026).
Blank lines part the entries; values can stand above or below the compound they belong to.

How the values were obtained:
[1] = system: G12 long stem (SMFS construct) (RNA, aptamer) GGCAGGGCUGACGUAGUUGGAGUGGUGCGGGAGGGGAGUAAUCUCGGUCAUUGAGUGAACAGACGUCAAGCUAGUUGGGCUACUGGCUUCGAGAUUACUCCAGUGAGGGCAGAAUUCAGGUG; test: optical tweezers force ramp; settings: 250 mM KCl, 20 mM NaCl, 5 mM MgCl2; 40 mM HEPES pH 7.4, ~25 °C; intermediate I1 stabilised as in short stem
[2] = system: G12 short stem (SMFS construct) (RNA, aptamer) GGCAGGGCUGACGUAGUUGGAGUGGUGCGGGAGGCCGUGGUCAUUGAGUGAACAGACGUCAAGCUAGUUGGGCUACUGGCUUCACGGAGUGAGGGCAGAAUUCAGGUG; test: optical tweezers force-jump, koff/kon; settings: 250 mM KCl, 20 mM NaCl, 5 mM MgCl2; 40 mM HEPES pH 7.4, ~25 °C; near-zero force; koff 0.0055 s-1, kon 0.42 s-1 µM-1
[3] = system: G12 no stem (SMFS construct) (RNA, aptamer) GGCAGGGCUGACGUAGUUGGAGUGGUGCGGGAGGGUCAUUGAGUGAACAGACGUCAAGCUAGUUGGGCUACUGGCUUAGUGAGGGCAGAAUUCAGGUG; test: optical tweezers passive mode, koff/kon; settings: 250 mM KCl, 20 mM NaCl, 5 mM MgCl2; 40 mM HEPES pH 7.4, ~25 °C; extrapolated to zero force; koff 6.0 s-1
[4] = system: G12 (RNA, aptamer) GGGCAACUCCAAGCUAGAUCUACCGGUAAUUUAGGUCAUUGAGUGAACAGACGUCAAGCUAGUUGGGCUACUGGCUUCUAAAACACAGGUAAAAUG; test: fluorescence titration, Hill fit (ex 375 nm, em 530 nm); settings: 20 °C; 10 nM doxycycline
[5] = system: tetracycline aptamer (SMFS construct) (RNA, aptamer) GGCAGGGCUGACGUAGUUGGAGUGGUGCGGGAGGAUAUAGUAAUCUGCAAAACAUACCAGAUGAAAAUCUGGAGAGGUGAAGAAUACGACCACCUGCAGAUUACUAUAUAGUGAGGGCAGAAUUCAGGUG; test: optical tweezers force ramp; settings: 250 mM KCl, 20 mM NaCl, 5 mM MgCl2; 40 mM HEPES pH 7.4, ~25 °C; P1 unfolding force increased
[6] = system: G12 (RNA, aptamer) GGGCAACUCCAAGCUAGAUCUACCGGUAAUUUAGGUCAUUGAGUGAACAGACGUCAAGCUAGUUGGGCUACUGGCUUCUAAAACACAGGUAAAAUG; test: fluorescence titration (intrinsic fluorescence); settings: K+ (20 mM KPO4), 100 mM NaCl, 10 mM MgCl2, pH 7.5

binding [1]: yes
KD,0 [2]: 13.1 nM
KD,0 [3]: 3800 nM
KD [4]: 2.8 nM
Compound: C[C@H]1c2cccc(O)c2C(=O)C2=C(O)[C@]3(O)C(=O)C(C(N)=O)=C(O)[C@@H](N(C)C)[C@@H]3[C@@H](O)[C@@H]21

binding [5]: yes
binding ([6]; 1 nM tetracycline): no
Compound: CN(C)[C@@H]1C(=O)C(C(N)=O)=C(O)[C@@]2(O)C(=O)C3=C(O)c4c(O)cccc4[C@@](C)(O)[C@H]3C[C@@H]12

binding ([6]; 5 nM 7-chloro-tetracycline): no
Compound: CN(C)[C@@H]1C(O)=C(C(N)=O)C(=O)[C@@]2(O)C(O)=C3C(=O)c4c(O)ccc(Cl)c4[C@@](C)(O)[C@H]3C[C@@H]12

binding ([6]; 20 nM anhydrotetracycline): no
Compound: Cc1c2c(c(O)c3c(O)cccc13)C(=O)[C@]1(O)C(O)=C(C(N)=O)C(=O)[C@@H](N(C)C)[C@@H]1C2

binding ([6]; 5 nM sancycline): no
Compound: CN(C)[C@@H]1C(O)=C(C(N)=O)C(=O)[C@@]2(O)C(O)=C3C(=O)c4c(O)cccc4C[C@H]3C[C@@H]12

binding ([6]; 20 nM minocycline): no
Compound: CN(C)c1ccc(O)c2c1C[C@H]1C[C@H]3[C@H](N(C)C)C(O)=C(C(N)=O)C(=O)[C@@]3(O)C(O)=C1C2=O
